Assay [1] deals with TRPV3 I674A gate residue mutant. As to conditions: cited from earlier work.
Assay [2] addresses T1, F666A mutant TRPV3 (Mus musculus, UniProt Q8K424, F666A).
T1 construct: expressed in transfected cells; host or cells: HEK 293 S GnTI- cells (baculovirus transduction)
T1 sequence (Q8K424 1-791 F666A): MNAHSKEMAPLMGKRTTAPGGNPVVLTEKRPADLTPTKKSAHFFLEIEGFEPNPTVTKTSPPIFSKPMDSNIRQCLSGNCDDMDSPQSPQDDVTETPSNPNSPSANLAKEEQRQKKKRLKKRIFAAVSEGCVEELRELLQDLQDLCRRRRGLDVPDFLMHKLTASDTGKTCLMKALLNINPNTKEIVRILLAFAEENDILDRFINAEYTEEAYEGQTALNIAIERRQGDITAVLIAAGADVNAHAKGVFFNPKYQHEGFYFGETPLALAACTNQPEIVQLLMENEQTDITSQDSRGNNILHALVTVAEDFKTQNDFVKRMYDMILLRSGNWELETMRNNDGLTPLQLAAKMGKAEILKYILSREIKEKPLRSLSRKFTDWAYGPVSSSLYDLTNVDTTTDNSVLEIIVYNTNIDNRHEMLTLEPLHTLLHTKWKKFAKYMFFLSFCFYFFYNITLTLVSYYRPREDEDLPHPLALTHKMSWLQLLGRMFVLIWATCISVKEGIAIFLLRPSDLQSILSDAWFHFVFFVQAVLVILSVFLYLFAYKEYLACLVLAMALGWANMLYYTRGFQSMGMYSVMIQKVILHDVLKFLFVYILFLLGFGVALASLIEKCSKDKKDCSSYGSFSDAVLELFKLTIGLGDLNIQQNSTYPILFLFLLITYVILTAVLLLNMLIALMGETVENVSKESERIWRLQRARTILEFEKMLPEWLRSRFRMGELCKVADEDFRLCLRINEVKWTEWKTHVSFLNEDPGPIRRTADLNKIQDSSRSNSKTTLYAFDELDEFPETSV
Put plainly: Fura-2 ratiometric Ca2+ uptake, inhibition of 2-APB-evoked response. It counts as cell-based. As to conditions: n = 3. The method, then: GFP-free C-terminally strep-tagged wild-type TRPV3, TRPV3-Y564A, TRPV3-Y594A, TRPV3-F633A, TRPV3-I663W, and TRPV3-F666A were expressed in HEK 293 S GnTI^− cells as previously described[41],[42],[53]. In short, 48 h after transduction, 1-ml aliquots of cell suspension were collected by centrifugation at 550 g for 5 min using an Eppendorf 5424 centrifuge. The cells were resuspended in the pre-warmed modified HEPES-buffered saline (HBS) containing 118 mM NaCl, 4.8 mM KCl, 1 mM MgCl2, 5 mM D-glucose, and 10 mM HEPES pH 7.4 and 5 μg/ml Fura-2 AM (Thermo Fisher Scientific) and incubated for 45 min at 37 °C. The Fura-2-loaded cells were then centrifuged for 5 min at 550 g, resuspended in the pre-warmed, modified HBS and incubated again for 30 min at 37 °C in the dark. The cells were subsequently pelleted and washed twice in the modified HBS. The washed cell pellets were kept on ice in the dark before taking an aliquot for fluorescence measurements. […] We used the lower CaCl2 concentration than before[42],[28] (2.5 mM) to minimize non-specific effects, which often appeared as a drift in the Fura-2 signal at high Ca^2+ concentration, presumably due to cell death as a result of calcium overload. Fluorescence measurements were conducted using a QuantaMaster 40 spectrofluorometer (Photon Technology International) at room temperature in a quartz cuvette under constant stirring. After 60 s since the beginning, the recording was paused and 2-APB was added. After the addition of 2-APB, the recording was continued for the additional 140 s. Changes in intracellular Ca^2+ were measured by taking the ratio of fluorescence emitted at 510 nm at the excitation wavelength of 340 nm and 380 nm. […] The data were processed using Origin 9.0 (OriginLab) software.

Assay [3] addresses T2, TRPV3-Y564A (Mus musculus, UniProt Q8K424, Y564A).
T2 construct: expressed in transfected cells; host or cells: HEK 293 S GnTI- cells (baculovirus transduction)
T2 sequence (Q8K424 1-791 Y564A): T1 sequence (Q8K424 1-791 F666A) with Y564A, A666F
The description is as above. The assay is classed as cell-based. As for the experimental part: The Y564A mutation increases affinity to the TRPV3 agonist 2-APB[42] and decreases affinity to the competitive antagonist osthole.
GFP-free C-terminally strep-tagged wild-type TRPV3, TRPV3-Y564A, TRPV3-Y594A, TRPV3-F633A, TRPV3-I663W, and TRPV3-F666A were expressed in HEK 293 S GnTI^− cells as previously described[41],[42],[53]. In short, 48 h after transduction, 1-ml aliquots of cell suspension were collected by centrifugation at 550 g for 5 min using an Eppendorf 5424 centrifuge. The cells were resuspended in the pre-warmed modified HEPES-buffered saline (HBS) containing 118 mM NaCl, 4.8 mM KCl, 1 mM MgCl2, 5 mM D-glucose, and 10 mM HEPES pH 7.4 and 5 μg/ml Fura-2 AM (Thermo Fisher Scientific) and incubated for 45 min at 37 °C. The Fura-2-loaded cells were then centrifuged for 5 min at 550 g, resuspended in the pre-warmed, modified HBS and incubated again for 30 min at 37 °C in the dark. […] The washed cell pellets were kept on ice in the dark before taking an aliquot for fluorescence measurements. […] Fluorescence measurements were conducted using a QuantaMaster 40 spectrofluorometer (Photon Technology International) at room temperature in a quartz cuvette under constant stirring. […] Changes in intracellular Ca^2+ were measured by taking the ratio of fluorescence emitted at 510 nm at the excitation wavelength of 340 nm and 380 nm. […]

The structures appear in SMILES notation. Substitutions are numbered along the chain they refer to.

For orientation: IC50 means the midpoint of a concentration-inhibition curve. The low end stands for greater potency in that assay, the high end for weaker potency in that assay. As for `CCCCOc1ccc(C(=O)CCN2CCCCC2)cc1` [dyclonine, 1-(4-butoxyphenyl)-3-piperidin-1-ylpropan-1-one], the “inhibitory potency at I674A mutant” value in assay [1] was “reduced inhibitory potency”. For the same molecule, the concentration for half-maximal inhibition (IC50) came to 673 ± 37 µM in assay [2] (HEK 293 GnTI- cells, 200 µM 2-APB after pre-incubation with inhibitor) and 31.5 ± 1 µM in assay [3] (200 µM 2-APB, n = 4, negative control mutant). The “nHill of inhibition curve, F666A” value in assay [2] (logistic fit) was determined as 2.07 ± 0.08. For the same molecule, in assay [3] (logistic fit, n = 4), the “nHill of inhibition curve, Y564A” value amounted to 2.33 ± 0.11.

These data come from publication PMC9120478 (Nature Communications, 2022).
